For assay [1], the target named is T1, subtype of muscarinic receptors (M1-site, pirenzepine sensitive site), rat cerebral cortex membranes (Rattus norvegicus, UniProt P08482).
T1 construct: Fresh cortex (0.1-1 g) from male Wistar rats (150-200 g) is homogenized; from tissue; host or cells: fresh cerebral cortex membranes of male Wistar rats
T1 sequence (P08482 1-460): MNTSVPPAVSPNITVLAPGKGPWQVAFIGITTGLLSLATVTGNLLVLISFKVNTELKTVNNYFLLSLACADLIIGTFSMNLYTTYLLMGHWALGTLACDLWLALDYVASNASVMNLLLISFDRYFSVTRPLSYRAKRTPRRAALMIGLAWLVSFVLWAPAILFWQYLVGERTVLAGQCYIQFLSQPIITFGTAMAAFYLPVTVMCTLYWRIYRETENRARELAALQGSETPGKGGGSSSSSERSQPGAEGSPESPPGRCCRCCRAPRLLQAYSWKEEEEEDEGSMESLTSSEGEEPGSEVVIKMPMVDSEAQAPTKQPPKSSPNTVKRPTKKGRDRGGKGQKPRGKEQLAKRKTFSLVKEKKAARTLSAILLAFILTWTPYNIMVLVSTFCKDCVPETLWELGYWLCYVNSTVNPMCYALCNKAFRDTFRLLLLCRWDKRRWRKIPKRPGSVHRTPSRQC
The experiment in a line: inhibition of ^3 H-PRZ (pirenzepine, [N-methyl-^3 H]) binding to rat cerebral cortex membranes. More on the design: species or system rat (male Wistar). The protocol: Furthermore, the pharmacological properties of the compounds of the invention can also be illustrated by determining their capability to inhibit ^3 H-PRZ (pirenzepine, [N-methyl-^3 H]) binding to rat cerebral cortex membranes. Pirenzepine binds selectively to subtype of muscarinic receptors. Historically the type is named the M1 -site, whereas pirenzepine sensitive site would be more appropriate.
All preparations are performed at 0-4° C. unless otherwise indicated. Fresh cortex (0.1-1 g) from male Wistar rats (150-200 g) is homogenized for 5-10 s. in 10 ml 20 mM Hepes pH: 7.4, with an Ultra-Turraxhomogenizer. The homogenizer is rinsed with 2×10 ml of buffer and the combined suspension centrifuged for 15 min at 40,000×g. The pellet is washed three times with buffer. In each step the pellet is homogenized as before in 3×10 ml of buffer and centrifuged for 10 min at 40,000×g.
The final pellet is homogenized in 20 mM Hepes pH: 7.4 (100 ml per g of original tissue) and used for binding assay. Aliquots of 0.5 ml is added 20 μl of test solution and 25 μl of ^3 H-Pirenzepine (1.0 nM, final conc.), mixed and incubated for 60 min at 20° C. Non-specificbinding is determined in triplicate using atropine (1 μg/ml, final conc.) as the test substance. After incubation samples are added 5 ml of ice-cold buffer and poured directly onto Whatman GF/C glass fibre filters under suction and immediately washed 2 times with 5 ml of ice-cold buffer. The amount of radioactivity on the filters are determined by conventional liquid scintillation counting. Specific binding is total binding minus non-specific binding.
Test substances are dissolved in 10 ml water, at a concentration of 0.22 mg/ml. 25-75% inhibition of specific binding must be obtained before calculation of IC50.
The test value will be given as IC50 (the concentration (nM) of the test substance which inhibits the specific binding of ^3 H-PRZ by 50%) .
(§1) IC50 =(applied test substance concentration) x(Cx /Co
(§2) where Co is specific binding in control assays and Cx is the specific binding in the test assay. (The calculations assume normal mass-action kinetics).

Assay [2] deals with muscarinic acetylcholine receptors. Kind of assay: inhibition of specific binding of ^3 H-Oxotremorine-M (^3 H-Oxo), fresh rat cortex. More on the design: species or system rat (male Wistar). The conditions noted are these: ^3 H-Oxotremorine 1.0 nM, 30 min at 25° C, pH 7.4.
Description: The pharmacological properties of the compounds of the invention can be illustrated by determining their capability to inhibit the specific binding of ^3 H-Oxotremorine-M (^3 H-Oxo). Birdsdall N. J. M., Hulme E. C., and Burgen A. S. V. (1980). "The Character of Muscarinic Receptors in Different Regions of the Rat Brain". Proc. Roy. Soc. London (Series B) 207,1.
^3 H-Oxo labels muscarinic receptor in the CNS (with a preference for agonist domains of the receptors). Three different sites are labelled by ^3 H-Oxo. […] Using the present experimental conditions only the high and medium affinity sites are determined.
The inhibitory effects of compounds on ^3 H-Oxo binding reflects the affinity for muscarinic acetylcholine receptors.
All preparations are performed at 0-4° C. unless otherwise indicated. Fresh cortex (0.1-1 g) from male Wistar rats (150-250 g) is homogenized for 5-10 s in 10 ml 20 mM Hepes pH: 7.4, with an Ultra-Turrax homogenizer. The homogenizer is rinsed with 10 ml of buffer and the combined suspension centrifuged for 15 min. at 40,000×g. The pellet is washed three times with buffer. In each step the pellet is homogenized as before in 2×10 ml of buffer and centrifuged for 10 min. at 40,000×g.
The final pellet is homogenized in 20 mM Hepes pH: 7.4 (100 ml per g of original tissue) and used for binding assay. Aliquots of 0.5 ml is added 25 μl of test solution and 25 μl of ^3 H-Oxotremorine (1.0 nM, final concentration) mixed and incubated for 30 min. at 25° C. Non-specific is determined in triplicate using arecoline (1 μg/ml, final concentration) as the test substance. After incubation samples are added 5 ml of ice-cold buffer and poured directly onto Whatman GF/C glass fiber filters under suction and immediately washed 2 times with 5 ml of ice-cold buffer. The amount of radioactivity on the filters are determined by conventional liquid scintillation counting. Specific binding is total binding minus non specific binding.
Test substances are dissolved in 10 ml water (if necessary heated on a steambath for less than 5 min.) at a concentration of 2.2 mg/ml. 25-75% inhibition of specific binding must be obtained before calculation of IC50.
The test value will be given as IC50 (the concentration (nM) of the test substance which inhibits the specific binding of ^3 H-Oxo by 50%) .
as §1, §2

The target of assay [3] is muscarinic receptor in the CNS. The conditions noted are these: read-out: affinity of site labelled by ^3 H-Oxo, cited from earlier work.
The next assay concerns M2-sites. The conditions noted are these: cited from earlier work.
In another assay the test system is M1-sites. The conditions noted are these: cited from earlier work.
Setting [4] is: ^3 H-Pirenzepine 1.0 nM, rat cortex, 60 min at 20° C, pH 7.4, read-out: ^3 H-PRZ IC50.

Counter-ions that a name gives are not always drawn. Like-named read-outs stand apart in the source and are kept apart here.

These results are taken from US5914338A, “Heterocyclic compounds and their preparation and use” (Novo Nordisk, priority 1996, dated 1999).

Broadly, the IC50 is the concentration that inhibits the measured activity by half. Consider `CCCSc1nsnc1C12CN3CC1C2C3` [Compound 2, 1-(3-Propylthio-1,2,5-thiadiazol-4-yl)-4-azatricyclo[2.2.1.0^2,6]heptane, oxalate], for which the IC50 in assay [1] is 100 nM; in assay [2], 4.3 nM.
Turning to `FC(F)(F)CCSc1nsnc1C12CN3CC1C2C3` [Compound 3, 1-(3,3,3-Trifluoropropylthio-1,2,5-thiadiazol-4-yl)-4-azatricyclo[2.2.1.0^2,6]heptane, oxalate], the IC50 in assay [1] (setting [4]) stood at 245 nM; in assay [2] it was 14 nM.
The like results for `N#Cc1ccc(CSc2nsnc2C23CN4CC2C3C4)cc1` [Compound 4, 1-[3-(4-Cyanobenzylthio)-1,2,5-thiadiazol-4-yl]-4-azatricyclo[2.2.1.0^2,6]heptane, oxalate] were, in that order, 500 nM and 41 nM.
Turning to `Fc1ccc(C#CCOc2nsnc2C23CN4CC2C3C4)cc1` [Compound 6, 1-(3-[3-(4-Fluorophenyl)-2-propynyl-1-oxy]-1,2,5-thiadiazol-4-yl)-4-azatricyclo[2.2.1.0^2,6]heptane, oxalate], the IC50 was 93 nM in assay [1] (setting [4]) and 17 nM in assay [2].
The like results for `C(#Cc1ccccc1)COc1nsnc1C12CN3CC1C2C3` [Compound 7, 1-[3-(3-Phenyl-2-propynyl-1-oxy)-1,2,5-thiadiazol-4-yl]-4-azatricyclo[2.2.1.0^2,6]heptane, oxalate] were, in that order, 183 nM and 26 nM.
The matching figures for `C(#Cc1ccsc1)COc1nsnc1C12CN3CC1C2C3` [Compound 8, 1-(3-[3-(3-Thienyl)-2-propyn-1-yloxy]-1,2,5-thiadiazol-4-yl)-4-azatricyclo[2.2.1.0^2,6]heptane, oxalate]: 180 nM and 8.7 nM.
The matching figures for `C(#Cc1cccs1)COc1nsnc1C12CN3CC1C2C3` [Compound 9, 1-(3-[3-(2-Thienyl)-2-propyn-1-yloxy]-1,2,5-thiadiazol-4-yl)-4-azatricyclo[2.2.1.0^2,6]heptane, oxalate]: 284 nM and 15 nM.
For `COc1cccc(C#CCOc2nsnc2C23CN4CC2C3C4)c1` [Compound 10, 1-(3-[3-(3-Methoxyphenyl)-2-propyn-1-yloxy]-1,2,5-thiadiazol-4-yl)-4-azatricyclo[2.2.1.0^2,6]heptane, hydrochloride], the IC50 is 326 nM in assay [1] (setting [4]) and 25 nM in assay [2].
The matching figures for `C(#Cc1cccnc1)COc1nsnc1C12CN3CC1C2C3` [Compound 11, 1-(3-[3-(3-Pyridyl)-2-propyn-1-yloxy]-1,2,5-thiadiazol-4-yl)-4-azatricyclo[2.2.1.0^2,6]heptane, oxalate]: 400 nM and 6 nM.
Take `C[N+](C)(C)CC#CCN1CCCC1=O` [^3 H-Oxo, ^3 H-Oxotremorine-M]: the Kd in assay [3] (first (high affinity) site) was 1.8 nM; in assay [3] (second (medium affinity) site) it was 20 nM; in assay [3] (third site, not determined under the present conditions) it was 3000 nM.
On to `CN1CCN(CC(=O)N2c3ccccc3C(=O)Nc3cccnc32)CC1` [pirenzepine], for which the “interaction with M2-sites” value in the assay with M2-sites is reported as “also interact with M2 -sites”. Besides, the “selectivity for M1-sites” value with M1-sites is listed as “selective for M1 -sites”.
